For seven molecules, mortality results are on record in patent publication US10435411B2, “Oxime group-containing quinoline compound, N-oxide thereof or salt thereof, agricultural and horticultural insecticide comprising the compound, and method for using the insecticide” (Nihon Nohyaku Co., Ltd., priority 2016, dated 2019).

The structures appear in SMILES notation.

The subject of assay [1] is Laodelphax striatellus. Description: Insecticidal test on Laodelphax striatellus (rice seedling dip). It counts as in vivo. Conditions: 192 h, rice seedlings dipped 30 seconds, 3rd-instar larvae, 8 days after inoculation, read-out: insecticidal efficacy (corrected mortality rate) activity level. The text has this:
Insecticidal Test on Laodelphax striatellus
The oxime group-containing quinoline compounds represented by the general formula (1) of the present invention or salts thereof were separately dispersed in water and diluted to 500 ppm. Rice plant seedlings (variety: Nihonbare) were dipped in the agrochemical dispersions for 30 seconds. After air-dried, each seedling was put into a separate glass test tube and inoculated with ten 3rd-instar larvae of Laodelphax striatellus, and then the glass test tubes were capped with cotton plugs. At 8 days after the inoculation, the numbers of surviving larvae and dead larvae were counted, the corrected mortality rate was calculated according to the formula shown below, and the insecticidal efficacy was evaluated according to the criteria shown below. Corrected mortality rate (%)=100×(Survival rate in a non-treatment plot−Survival rate in a treatment plot)/Survival rate in a non-treatment plot [Math. 2] Criteria A: the corrected mortality rate is 100%. B: the corrected mortality rate is 90 to 99%. C: the corrected mortality rate is 80 to 89%. D: the corrected mortality rate is 50 to 79%.

Assay [2] has as its system Plutella xylostella. The assay is described as follows: Insecticidal test on Plutella xylostella (dip of Chinese cabbage seedlings with laid eggs). It counts as in vivo. Conditions: 144 h, seedlings with laid eggs dipped about 30 seconds, 25° C., 6 days after dip treatment, criteria of Test Example 2, read-out: insecticidal efficacy (corrected mortality rate) activity level. An excerpt:
Insecticidal Test on Plutella xylostella
Adults of Plutella xylostella were released onto Chinese cabbage seedlings and allowed to lay eggs thereon. At 2 days after the release of the adults, the Chinese cabbage seedlings with laid eggs were dipped for about 30 seconds in agrochemical dispersions diluted to 500 ppm, each of which contained a different kind of oxime group-containing quinoline compound represented by the general formula (1) of the present invention as an active ingredient. After air-dried, the seedlings were kept in a thermostatic chamber at 25° C. At 6 days after the dip treatment, the number of hatched larvae per plot was counted, the mortality rate was calculated according to the formula shown below, and the insecticidal efficacy was evaluated according to the criteria of Test Example 2. This test was conducted in triplicate using 10 adults of Plutella xylostella per plot. Corrected mortality rate (%)=100×(Number of hatched larvae in a non-treatment plot−Number of hatched larvae in a treatment plot)/Number of hatched larvae in a non-treatment plot [Math. 3]

Regarding `CCS(=O)(=O)c1cc2cc(/C=N/O)ccc2nc1-c1nc2cc(C(F)(F)F)cnc2n1C` [Compound 1-1, (E)-3-(ethylsulfonyl)-2-(3-methyl-6-(trifluoromethyl)-3H-imidazo[4,5-b]pyridin-2-yl)quinoline-6-carbaldehyde oxime], the mortality at 500 ppm in assay [1] and in assay [2] was 100% throughout.
Regarding `CCS(=O)(=O)c1cc2cc(/C=N/OCC(F)(F)F)ccc2nc1-c1nc2cc(C(F)(F)F)cnc2n1C` [Compound 1-7, (E)-3-(ethylsulfonyl)-2-(3-methyl-6-(trifluoromethyl)-3H-imidazo[4,5-b]pyridin-2-yl)quinoline-6-carbaldehyde O-(2,2,2-trifluoroethyl)oxime], the mortality at 500 ppm in assay [1] and in assay [2] was 100% throughout.
Regarding `CCS(=O)(=O)c1cc2ccc(/C=N/OCSC)cc2nc1-c1nc2cc(C(F)(F)F)cnc2n1C` [Compound 2-19, 3-(ethylsulfonyl)-2-(3-methyl-6-(trifluoromethyl)-3H-imidazo[4,5-b]pyridin-2-yl)quinoline-7-carbaldehyde O-(methylthiomethyl)oxime], the mortality at 500 ppm in assay [1] and in assay [2] was 100% throughout.
In the case of `CCS(=O)(=O)c1cc2ccc(/C=N/OC[S+](C)[O-])cc2nc1-c1nc2cc(C(F)(F)F)cnc2n1C` (centres unmarked) [Compound 2-24, 3-(ethylsulfonyl)-2-(3-methyl-6-(trifluoromethyl)-3H-imidazo[4,5-b]pyridin-2-yl)quinoline-7-carbaldehyde O-(methylsulfinylmethyl)oxime], the mortality at 500 ppm in assay [1] and in assay [2] was 100% each time.
`CCS(=O)(=O)c1cc2ccc(/C=N/OCS(C)(=O)=O)cc2nc1-c1nc2cc(C(F)(F)F)cnc2n1C` [Compound 2-25, 3-(ethylsulfonyl)-2-(3-methyl-6-(trifluoromethyl)-3H-imidazo[4,5-b]pyridin-2-yl)quinoline-7-carbaldehyde O-(methylsulfonylmethyl)oxime]: the mortality at 500 ppm in assay [1] and in assay [2] was 100% throughout.
For the molecule `CCS(=O)(=O)c1cc2cc(/C(C)=N/O)ccc2nc1-c1nc2cc(SC(F)(F)F)ccc2o1` [Compound 3-2, 1-(3-(ethylsulfonyl)-2-(5-(trifluoromethylthio)benzo[d]oxazol-2-yl)quinolin-6-yl)ethanone oxime], the mortality at 500 ppm in assay [1] and in assay [2] was 100% in each case.
As to `CCS(=O)(=O)c1cc2cc(/C(C)=N/OCC(F)(F)F)ccc2nc1-c1nc2cc(SC(F)(F)F)ccc2o1` [Compound 3-8, 1-(3-(ethylsulfonyl)-2-(5-(trifluoromethylthio)benzo[d]oxazol-2-yl)quinolin-6-yl)ethanone O-(2,2,2-trifluoroethyl)oxime], the mortality at 500 ppm in assay [1] and in assay [2] was 100% throughout.
